Assay results published in ChEMBL document CHEMBL1130041, “Halogenated 4-(phenoxymethyl)piperidines as potential radiolabeled probes for sigma-1 receptors: in vivo evaluation of [123I]-1-(iodopropen-2-yl)-4-[(4-cyanophenoxy)methyl]pip eri dine” (J Med Chem, 1997).

Key:
Rattus norvegicus [1] = organism: Rattus norvegicus; assay: Distribution of [123I]-label in rat brain (striatum) was reported at 60 min post injection. Value shown is %ID/g of tissue; assay type: ADME, organism-based; conditions: in vivo, 1 h
Rattus norvegicus [2] = organism: Rattus norvegicus; assay: Biodistribution of [123I]-label in rat stomach was reported at 0.33 hr post injection. Value shown is %ID/g of tissue; assay type: ADME, organism-based; conditions: in vivo
Rattus norvegicus [3] = organism: Rattus norvegicus; assay: Biodistribution of [123I]-label in rat thyroid was reported at 2 hr post injection. Value shown is %ID/organ; assay type: ADME, organism-based, Thyroid gland; conditions: in vivo
Rattus norvegicus [4] = organism: Rattus norvegicus; assay: Biodistribution of [123I]-label in rat lung was reported at 0.33 hr post injection. Value shown is %ID/g of tissue; assay type: ADME, organism-based; conditions: in vivo
Rattus norvegicus [5] = organism: Rattus norvegicus; assay: Biodistribution of [123I]-label in rat thyroid was reported at 4 hr post injection. Value shown is %ID/organ; assay type: ADME, organism-based, Thyroid gland; conditions: in vivo
Rattus norvegicus [6] = organism: Rattus norvegicus; assay: Biodistribution of [123I]-label in rat brain was reported at 2 hr post injection. Value shown is %ID/g of tissue; assay type: ADME, organism-based; conditions: in vivo
Rattus norvegicus [7] = organism: Rattus norvegicus; assay: Biodistribution of [123I]-label in rat lung was reported at 2 hr post injection. Value shown is %ID/g of tissue; assay type: ADME, organism-based; conditions: in vivo
Rattus norvegicus [8] = organism: Rattus norvegicus; assay: Biodistribution of [123I]-label in rat brain was reported at 24 hr post injection. Value shown is %ID/g of tissue; assay type: ADME, organism-based; conditions: in vivo
Rattus norvegicus [9] = organism: Rattus norvegicus; assay: Biodistribution of [123I]-label in rat brain was reported at 2 hr post injection. Value shown is %ID/organ; assay type: ADME, organism-based; conditions: in vivo
Rattus norvegicus [10] = organism: Rattus norvegicus; assay: Biodistribution of [123I]-label in rat spleen was reported at 2 hr post injection. Value shown is %ID/g of tissue; assay type: ADME, organism-based; conditions: in vivo
Rattus norvegicus [11] = organism: Rattus norvegicus; assay: Biodistribution of [123I]-label in rat intestine was reported at 0.33 hr post injection. Value shown is %ID/g of tissue; assay type: ADME, organism-based; conditions: in vivo
Rattus norvegicus [12] = organism: Rattus norvegicus; assay: Distribution of [123I]-label in rat brain (midbrain) was reported at 20 min post injection. Value shown is %ID/g of tissue; assay type: ADME, organism-based; conditions: in vivo
Rattus norvegicus [13] = organism: Rattus norvegicus; assay: Biodistribution of [123I]-label in rat spleen was reported at 1 hr post injection. Value shown is %ID/g of tissue; assay type: ADME, organism-based; conditions: in vivo
[14] = molecular target: Sigma non-opioid intracellular receptor 1 (Homo sapiens, UniProt Q99720); assay: 50% inhibitory dose against sigma receptor; assay type: functional
Sequence of Sigma non-opioid intracellular receptor 1 (Q99720 whole entry): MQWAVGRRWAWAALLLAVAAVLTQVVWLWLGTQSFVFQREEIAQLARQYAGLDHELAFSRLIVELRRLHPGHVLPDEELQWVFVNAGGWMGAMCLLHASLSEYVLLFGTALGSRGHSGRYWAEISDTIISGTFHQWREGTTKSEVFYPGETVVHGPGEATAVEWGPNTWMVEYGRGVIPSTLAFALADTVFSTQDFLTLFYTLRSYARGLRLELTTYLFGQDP

Rattus norvegicus [15] = organism: Rattus norvegicus; assay: Biodistribution of [123I]-label in rat kidneys was reported at 1 h post injection. Value shown is %ID/g of tissue; assay type: ADME, organism-based, Kidney; conditions: in vivo
Rattus norvegicus [16] = organism: Rattus norvegicus; assay: Biodistribution of [123I]-label in rat blood was reported at 1 hr post injection. Value shown is %ID/g of tissue; assay type: ADME, organism-based; conditions: in vivo
Rattus norvegicus [17] = organism: Rattus norvegicus; assay: Biodistribution of [123I]-label in rat thyroid was reported at 0.33 hr post injection. Value shown is %ID/organ; assay type: ADME, organism-based, Thyroid gland; conditions: in vivo
Rattus norvegicus [18] = organism: Rattus norvegicus; assay: Biodistribution of [123I]-label in rat stomach was reported at 4 hr post injection. Value shown is %ID/g of tissue; assay type: ADME, organism-based; conditions: in vivo
Rattus norvegicus [19] = organism: Rattus norvegicus; assay: Biodistribution of [123I]-label in rat liver was reported at 2 hr post injection. Value shown is %ID/g of tissue; assay type: ADME, organism-based; conditions: in vivo
Rattus norvegicus [20] = organism: Rattus norvegicus; assay: Biodistribution of [123I]-label in rat spleen was reported at 0.33 hr post injection. Value shown is %ID/g of tissue; assay type: ADME, organism-based; conditions: in vivo
Rattus norvegicus [21] = organism: Rattus norvegicus; assay: Biodistribution of [123I]-label in rat intestine was reported at 1 hr post injection. Value shown is %ID/g of tissue; assay type: ADME, organism-based; conditions: in vivo
Rattus norvegicus [22] = organism: Rattus norvegicus; assay: Biodistribution of [123I]-label in rat intestine was reported at 2 hr post injection. Value shown is %ID/g of tissue; assay type: ADME, organism-based; conditions: in vivo
Rattus norvegicus [23] = organism: Rattus norvegicus; assay: Biodistribution of [123I]-label in rat stomach was reported at 2 hr post injection. Value shown is %ID/g of tissue; assay type: ADME, organism-based; conditions: in vivo
Rattus norvegicus [24] = organism: Rattus norvegicus; assay: Distribution of [123I]-label in rat brain (medulla pons) was reported at 20 min post injection. Value shown is %ID/g of tissue; assay type: ADME, organism-based; conditions: in vivo
Rattus norvegicus [25] = organism: Rattus norvegicus; assay: Biodistribution of [123I]-label in rat heart was reported at 24 hr post injection. Value shown is %ID/g of tissue; assay type: ADME, organism-based; conditions: in vivo
Rattus norvegicus [26] = organism: Rattus norvegicus; assay: Distribution of [123I]-label in rat brain (posterior cortex) was reported at 60 min post injection. Value shown is %ID/g of tissue; assay type: ADME, organism-based; conditions: in vivo, 1 h
Rattus norvegicus [27] = organism: Rattus norvegicus; assay: Biodistribution of [123I]-label in rat brain was reported at 0.33 hr post injection. Value shown is %ID/g of tissue; assay type: ADME, organism-based; conditions: in vivo
Rattus norvegicus [28] = organism: Rattus norvegicus; assay: Biodistribution of [123I]-label in rat brain was reported at 4 hr post injection. Value shown is %ID/organ; assay type: ADME, organism-based; conditions: in vivo
[29] = Partition coefficient (logP); assay type: physicochemical; conditions: octanol/water
Rattus norvegicus [30] = organism: Rattus norvegicus; assay: Biodistribution of [123I]-label in rat brain was reported at 4 hr post injection. Value shown is %ID/g of tissue; assay type: ADME, organism-based; conditions: in vivo
Rattus norvegicus [31] = organism: Rattus norvegicus; assay: Distribution of [123I]-label in rat brain (hippocampus) was reported at 20 min post injection. Value shown is %ID/g of tissue; assay type: ADME, organism-based; conditions: in vivo
Rattus norvegicus [32] = organism: Rattus norvegicus; assay: Distribution of [123I]-label in rat brain (midbrain) was reported at 60 min post injection. Value shown is %ID/g of tissue; assay type: ADME, organism-based; conditions: in vivo, 1 h
Rattus norvegicus [33] = organism: Rattus norvegicus; assay: Biodistribution of [123I]-label in rat brain was reported at 0.33 hr post injection. Value shown is %ID/organ; assay type: ADME, organism-based; conditions: in vivo
Rattus norvegicus [34] = organism: Rattus norvegicus; assay: Biodistribution of [123I]-label in rat intestine was reported at 24 hr post injection. Value shown is %ID/g of tissue; assay type: ADME, organism-based; conditions: in vivo
Rattus norvegicus [35] = organism: Rattus norvegicus; assay: Biodistribution of [123I]-label in rat heart was reported at 0.33 hr post injection. Value shown is %ID/g of tissue; assay type: ADME, organism-based; conditions: in vivo

Molecule `N#Cc1ccc(OCC2CCN(C/C=C/I)CC2)cc1` has an ID/g (Rattus norvegicus [1]) of 1.13%, an ID/g (Rattus norvegicus [2]) of 0.46% and an ID (Rattus norvegicus [3]) of 0.27%. It also gave an ID/g (Rattus norvegicus [4]) of 6.59%, an ID (Rattus norvegicus [5]) of 0.34% and an ID/g (Rattus norvegicus [6]) of 0.91%. The ID/g (Rattus norvegicus [7]) was 3.75%, the ID/g (Rattus norvegicus [8]) was 0.84% and the ID (Rattus norvegicus [9]) was 2.01%. It also gave an ID/g (Rattus norvegicus [10]) of 0.89%, an ID/g (Rattus norvegicus [11]) of 0.54% and an ID/g (Rattus norvegicus [12]) of 1.06%. For the same molecule, the ID/g (Rattus norvegicus [13]) was 0.92%, the ID50 [14] was 0.01 mg/kg and the ID/g (Rattus norvegicus [15]) was 1.64%. It also gave an ID/g (Rattus norvegicus [16]) of 0.08%, an ID (Rattus norvegicus [17]) of 0.09% and an ID/g (Rattus norvegicus [18]) of 0.27%. The ID/g (Rattus norvegicus [19]) was 0.43%, the ID/g (Rattus norvegicus [20]) was 0.91% and the ID/g (Rattus norvegicus [21]) was 0.82%. It also gave an ID/g (Rattus norvegicus [22]) of 0.84%, an ID/g (Rattus norvegicus [23]) of 0.3% and an ID/g (Rattus norvegicus [24]) of 0.95%. For the same molecule, the ID/g (Rattus norvegicus [25]) was 0.18%, the ID/g (Rattus norvegicus [26]) was 1.51% and the ID/g (Rattus norvegicus [27]) was 1.06%. It also gave an ID (Rattus norvegicus [28]) of 2.03%, a logP [29] of 3.36 and an ID/g (Rattus norvegicus [30]) of 1.07%. It also gave an ID/g (Rattus norvegicus [31]) of 1.02%, an ID/g (Rattus norvegicus [32]) of 1.17% and an ID (Rattus norvegicus [33]) of 1.97%. It also gave an ID/g (Rattus norvegicus [34]) of 0.74% and an ID/g (Rattus norvegicus [35]) of 1.25%.
